The values below come from patent US12661404B2, “Methods and materials for tissue ablation” (Mayo Foundation for Medical Education and Research, priority 2020, dated 2026).

One data set deals with pig blood cells. The protocol:
(§1) The effect of IL on coagulation and cell death in blood was evaluated in vitro. To evaluate the effect of cell death along the margins of the ablation zone, specifically on the effect of IL on inflammatory cells, blood treated with low concentrations of IL was used to simulate concentrations along the ablation margins. To analyze the effect of the ionic liquid on blood coagulation, RBC hemolysis, and immune cells, analyses including rheometry, hemolyses assay, complete blood counts were performed on blood smears following incubation of pig blood aliquots with various concentrations of IL.

For the next data set, the system named is pig blood. The protocol: as §1
Data set [1] has as its system human hepatocellular carcinoma (Hep-G2) cells. The conditions noted are these: Hep-G2, 24 hours incubation, WST-1.
Protocol: HepG2 human liver cancer cell line (ATCC CRL10741; American Type Culture Collection, Manassas, VA, USA) were cultured in 75 cm^2 flasks using growth medium consisting of low glucose Dulbecco's Modified Eagle Medium (DMEM, ThermoFisher) and 10% heat-inactivated bovine serum that was supplemented with 100 IU penicillin and 10 μg/mL streptomycin (Thermo Fisher Scientific). […] The anticancer activity of LATTE on HepG2 was determined using WST-1 reagent (2-(4-Iodophenyl)-3-(4-nitrophenyl)-5-(2,4-disulfophenyl)-2H-tetrazolium sodium) assay as an indication of viability/cytotoxicity treatment. WST-1 viability assay is based on the reduction of tetrazolium salt, WST-1 to an insoluble formazan dye by electron transport across the plasma membrane in viable cells that alter the optical density of the media. […] Cell viability was calculated relative to control wells that received the growth medium alone.
All reported values are the means of three replicate experiments with each study having 8 wells per dose level. Plots of the log concentration versus fractional viability for each drug were generated for each study.
Data set [2] concerns Cholangiocarcinoma (SNU-478) cells. The note with it: SNU-478, 24 hours incubation, WST-1. The protocol:
(§2) To determine synergy and the concentration of a chemotherapy agent such as doxorubicin to co-administer with LATTE, cell culture experiments were performed.
(§3) HepG2 human liver cancer cell line (ATCC CRL10741; American Type Culture Collection, Manassas, VA, USA) were cultured in 75 cm^2 flasks using growth medium consisting of low glucose Dulbecco's Modified Eagle Medium (DMEM, ThermoFisher) and 10% heat-inactivated bovine serum that was supplemented with 100 IU penicillin and 10 μg/mL streptomycin (Thermo Fisher Scientific). […] The anticancer activity of LATTE on HepG2 was determined using WST-1 reagent (2-(4-Iodophenyl)-3-(4-nitrophenyl)-5-(2,4-disulfophenyl)-2H-tetrazolium sodium) assay as an indication of viability/cytotoxicity treatment. WST-1 viability assay is based on the reduction of tetrazolium salt, WST-1 to an […] formazan dye by electron transport across the plasma membrane in viable cells that alter the optical density of the media. […] At the end of the incubation period, the medium was discarded, and the wells were rinsed three times with DPBS solution followed by addition of 100 μL growth medium and 10 μL of freshly prepared WST-1 reagent into each well and then incubated for 2 hours inside the 5% CO2 incubator at 37° C. After the incubation period, the optical percent density was measured using a microplate reader at a wavelength of 450 nm (SpectraMax iD5, Molecular Devices, San Jose, CA). Cell viability was calculated relative to control wells that received the growth medium alone. Viability rate was calculated as follows: Viability (%)=[…].

The test system of data set [3] is patient derived cholangiocarcinoma, pancreas adenocarcinoma cell lines and HepG2 hepatocellular carcinoma cells. The conditions noted are these: three cell lines, serially diluted 25-0.048% w/v, 24 or 48 hours. The procedure:
as §2, §3

In data set [4] the test system is pancreas ductal adenocarcinoma (Panc-1) cells. The conditions noted are these: Panc-1, 24 hours incubation, WST-1. The protocol: as §2, §3
Background: Tetrazolium assays rely on reduction of a dye to a coloured formazan, in cell work by metabolically active cells.

A further data set has as its system fat cells (adipocytes). Briefly: Explanted pig fat tissue incubated with LATTE. The conditions noted are these: after 1 hour in LATTE solution.
The subject of the next data set is cardiac muscle. The conditions noted are these: 1 cc with ICG, 1 hour. The procedure:
FIGS. 14A-14B. Effect of an ablation agent on pig heart tissue. FIG. 14A. In a living Yorkshire pig weighing 50-55 kg, a syringe connected to a 21 gauge 7 cm needle was guided through the skin into the myocardium using hand-held ultrasound guidance. […] FIG. 14B.
Pig heart tissue septum received 1 cc injection of LATTE mixture with ICG under ultrasound guidance. Cardiac muscle was removed after 1 hour for near-infrared imaging (NIRF) and histology was performed.

Like-named read-outs stand apart in the source and are kept apart here.

Protocol for pig liver: Ultrasound-guided injection of LATTE solution was performed in euthanized pigs or rabbits. […] Ultrasonography was used to visualize the left liver lobe parenchyma using a high-frequency transducer (A 9-MHz multi-frequency linear probe, ACUSON 52000, Siemens, Germany). The access site position was marked on the skin and a scalpel blade was used to create a small incision in the center of the marked line. The access needle was advanced through the skin incision in front of the transducer parallel its long axis until it reached the desired location then the LATTE mixture was slowly injected over one minute. At 10 minutes post-injection, the liver tissue was harvested and subjected to near-infrared fluorescent imaging (NIRF) (IVIS 200, PerkinElmer, Inc. Waltham, MA) followed by fixation and histologic evaluation.
Injection Images were acquired at 0 and 90 minutes after injection. Pig livers were scanned with a 3T MAGNETOM Skyra MRI (Siemens Healthcare, Erlangen, Germany) with an 18 channel anterior coil in combination with a 32 channel posterior spine coil. […] Scans were acquired at 0 and 90 minutes after injection. Segmentation and volume calculations were acquired using the Materialise 3-Matic and Mimics 3D image processing software (Materialise, Belgium).

choline-geranate [LATTE]: in the data set on pig blood cells (0.78, 1.56, 3.12 wt % IL), the “red blood cells (RBC) total count” value is listed as “concentration dependent decrease” and the “white blood cells (WBC) total count” value is recorded as “concentration dependent decrease”. Also, the lymphocyte count entry with pig blood cells (0.78, 1.56, 3.12 wt % IL, compared to control) is “no change in lymphocyte count”. The hemolysis test entry with pig blood cells (0.78-25 wt % IL) was “significant increase in hemolysis”. Besides, in the data set with pig blood cells (3.12 wt % IL), the “hemolysis on stained blood smears” value was “complete hemolysis”. Also, in the data set with pig blood (0.78% IL), the “blood coagulation initiation lag time (tlag)” value is “slight increase in lag time” and the “decrease in storage modulus (G′) at 30 minutes” value is listed as approximately 20%. For the same substance, in the data set with pig blood (1.56 wt % IL), the “blood coagulation initiation lag time (tlag)” value is recorded as “significantly extended lag time” and the “drop in storage modulus (G′) at 30 minutes” value stood at 95%. Moreover, in the data set on pig blood (3.12 wt % IL), the “coagulation during 30 minutes testing period” value was “failed to coagulate” and the “decrease in storage modulus (G′) at 30 minutes” value is 100 wt %. Moreover, the liver histology entry with pig liver (2 mL of 25% LATTE mixed with ICG) is “total destruction of tissue architecture”. The ablation zone size entry with pig liver (transcutaneous injection in pigs) was “up to 4 cm”. Also, the “effective dose (EC50), fractional cell viability” value in data set [1] stood at 0.19%. Also, the “effective dose (EC50), fractional cell viability” value in data set [2] is 0.2%. In addition, in data set [3], the “effective concentration that causes 50% cell death (EC50)” value is given as 0.18-0.3%. Also, the “effective dose (EC50), fractional cell viability” value in data set [4] turned out to be 0.3%. Besides, the “fat depletion from adipocytes” value in the data set on fat cells (adipocytes) was “fat was depleted”. Moreover, the “cardiac muscle histology at injected site” value in the data set on cardiac muscle was “marked ablation of the cardiac myofibers”.
